Measurements taken from patent publication US20170334877A1, “REVAPRAZAN HYDROCHLORIDE POLYMORPHS AND PREPARATION METHOD THEREFOR” (JIANGSU TASLY DIYI PHARMACEUTICAL CO., LTD., priority 2014, published 2017).
Structures can show the parent of a compound that is named as a salt.

Experiments:
Type in all cases: physicochemical
[1] = High temperature test (60° C. incubator); details: for Appearance color / Loss on drying (%) / Purity (%) / Relevant substances: 60° C., hydrochloride; for Stability (conclusion in words): high temperature, no obvious changes in appearance color, loss on drying, purity, relevant substances
Protocol: Revaprazan hydrochloride crystalline form I is placed in a 60° C. incubator, and is sampled on the 5th day and 10th day for detection, and the results are shown in Table 2. Revaprazan hydrochloride crystalline form II is placed in a 60° C. incubator, and is sampled on the 5th day and 10th day for detection, and the results are shown in Table 6. Revaprazan hydrochloride polymorph III is placed in an incubator of 60° C., and is sampled on the 5th day and the 10th day for detection. Revaprazan hydrochloride crystalline form IV is placed in an incubator of 60° C., and is sampled on the 5th day and the 10th day for detection. Revaprazan hydrochloride crystal form 4 is placed in an incubator of 60° C.; and is sampled on the 5th day and the 10th day for detection, and the results are shown in Table 23.

[2] = High humidity test (25° C., relative humidity 75±5%); details: for Appearance color / Purity (%) / Weight gain upon moisture absorption (%) / Relevant substances: 25° C., RH 75±5%; for Weight gain upon moisture absorption (in words): high humidity condition; for Stability (conclusion in words): high humidity, no obvious changes in appearance color, purity, relevant substances
Protocol: Revaprazan hydrochloride crystalline form I is placed in an incubator of 25° C. (relative humidity of 75±5%), and is sampled on the 5th day and 10th day for detection. Revaprazan hydrochloride crystalline form II is placed in an incubator of 25° C. (relative humidity of 75±5%), and is sampled on the 5th day and 10th day for detection. Revaprazan hydrochloride polymorph III is placed in an incubator of 25° C. (relative humidity of 75±5%), and is sampled on the 5th day and the 10th day for detection. Revaprazan hydrochloride crystalline form IV is placed in an incubator of 25° C. Revaprazan hydrochloride crystal form 4 is placed in an incubator of 25° C. (the relative humidity is 75±5%), and is sampled on the 5th day and the 10th day for detection.

[3] = Light illumination test (intense light, 4500±500 Lx); details: for Stability (conclusion in words): intense light illumination, no obvious changes in appearance color, loss on drying, purity, relevant substances; for Appearance color / Loss on drying (%) / Purity (%) / Relevant substances: light 4500±500 Lx; for Loss on drying (%) / Purity (%) / Relevant substances: hydrochloride
Source text: Revaprazan hydrochloride crystalline form I is irradiated under such a condition that the light intensity is 4500±500 Lx, and is sampled on the 5th day and 10th day for detection, and the results are shown in Table 1. Revaprazan hydrochloride crystalline form II is irradiated under the condition that the light intensity is 4500±500Lx, and is sampled on the 5th day and 10th day for detection. Revaprazan hydrochloride polymorph III is irradiated under such a condition that the light intensity is 4500±500Lx, and is sampled on the 5th day and 10th day for detection. Revaprazan hydrochloride […] is irradiated under such a condition that the light intensity is 4500±500Lx, and is sampled on the 5th day and the 10th day for detection. Revaprazan hydrochloride crystalline form V is irradiated under the light intensity condition of 4500±500Lx; and is sampled on the 5th day and 10th day for detection.

[4] = Accelerated test (40±2° C., relative humidity 75±5%, 6 months, sealed polyethylene film bag); details: for Appearance color / Purity (%) / Relevant substances: 40±2° C., RH 75±5%; for Purity (%) / Relevant substances: hydrochloride; for Stability (conclusion in words): accelerated test, no obvious changes in appearance color, purity, relevant substances
Protocol: Revaprazan hydrochloride crystalline form I is sealed in a polyethylene film bag, is placed for 6 months under the conditions that the temperature is 40±2° C. and the relative humidity is 75±5%, and is respectively sampled at the end of the 1st Month, the 2nd Month, the 3rd Month and the 6^thMonth for detection; and the results are shown in Table 4. Revaprazan hydrochloride crystalline form II is sealed in a polyethylene film bag and is placed for 6 months under the conditions that the temperature is 40±2° C. and the relative humidity is 75±5%, and is respectively sampled at the end of the 1st Month, the 2nd Month, the 3rd Month and the 6th Month for detection; and the results are shown in Table 8. Revaprazan hydrochloride crystalline form III is sealed in a polyethylene film bag, is placed for 6 months under the conditions that the temperature is 40±2° C. and the relative humidity is 75±5%, and is sampled at the end of the 1st Month, the 2nd Month, the 3rd Month and the 6th Month for detection. Revaprazan hydrochloride crystalline form IV is sealed in a polyethylene film bag, is placed for 6 months under the conditions that the temperature is 40±2° C. and the relative humidity is 75±5%, and is sampled at the end of the 1st Month, the 2nd Month, the 3rd Month and the 6th Month for detection. Revaprazan hydrochloride crystalline form V is sealed in a polyethylene film bag and is placed for 6 months under the condition that the temperature is 40±2° C. and the relative humidity is 75±5%, and is sampled at the end of the 1st month, the 2nd month, the 3rd month and the 6th month for detection, and the results are shown in Table 20.

SMILES: Cc1nc(Nc2ccc(F)cc2)nc(N2CCc3ccccc3C2C)c1C (single isomer, unassigned) [revaprazan hydrochloride crystalline form V]
- Appearance color ([1]; 5th day): White powder
- Loss on drying (%) ([1]; 5th day): 0.30%
- Purity (%) ([1]; 5th day): 99.95%
- Relevant substances ([1]; 5th day): Undetected
- Appearance color ([1]; 10th day): White powder
- Loss on drying (%) ([1]; 10th day): 0.32%
- Purity (%) ([1]; 10th day): 99.92%
- Relevant substances ([1]; 10th day): Undetected
- Appearance color ([1]; Day 0): White powder
- Loss on drying (%) ([1]; Day 0): 0.29%
- Purity (%) ([1]; Day 0): 99.94%
- Relevant substances ([1]; Day 0): Undetected
- Stability (conclusion in words) [1]: stable
- Appearance color ([2]; 5th day): White powder
- Purity (%) ([2]; 5th day, hydrochloride): 99.94%
- Weight gain upon moisture absorption (%) ([2]; 5th day, hydrochloride): 0.42%
- Appearance color ([2]; 10th day): White powder
- Purity (%) ([2]; 10th day, hydrochloride): 99.96%
- Weight gain upon moisture absorption (%) ([2]; 10th day, hydrochloride): 0.66%
- Appearance color ([2]; Day 0): White powder
- Weight gain upon moisture absorption (%) ([2]; Day 0): 0%
- Purity (%) ([2]; Day 0, hydrochloride): 99.94%
- Weight gain upon moisture absorption (in words) [2]: slight weight gain
- Stability (conclusion in words) [2]: stable
- Stability (conclusion in words) [3]: stable
- Appearance color ([3]; 5th day): White powder
- Loss on drying (%) ([3]; 5th day): 0.27%
- Purity (%) ([3]; 5th day): 99.95%
- Relevant substances ([3]; 5th day): Undetected
- Appearance color ([3]; 10th day): White powder
- Loss on drying (%) ([3]; 10th day): 0.30%
- Purity (%) ([3]; 10th day): 99.95%
- Relevant substances ([3]; 10th day): Undetected
- Appearance color ([3]; Day 0): White powder
- Loss on drying (%) ([3]; Day 0): 0.24%
- Purity (%) ([3]; Day 0): 99.94%
- Relevant substances ([3]; Day 0): Undetected
- Appearance color ([4]; 1st month): White powder
- Purity (%) ([4]; 1st month): 99.98%
- Relevant substances ([4]; 1st month): Undetected
- Appearance color ([4]; 2nd month): White powder
- Purity (%) ([4]; 2nd month): 99.95%
- Relevant substances ([4]; 2nd month): Undetected
- Appearance color ([4]; 3rd month): White powder
- Purity (%) ([4]; 3rd month): 99.97%
- Relevant substances ([4]; 3rd month): Undetected
- Appearance color ([4]; 6th month): White powder
- Purity (%) ([4]; 6th month): 99.94%
- Relevant substances ([4]; 6th month): Undetected
- Appearance color ([4]; Month 0): White powder
- Purity (%) ([4]; Month 0): 99.94%
- Relevant substances ([4]; Month 0): Undetected
- Stability (conclusion in words) [4]: stable

SMILES: Cc1nc(Nc2ccc(F)cc2)nc(N2CCc3ccccc3C2C)c1C (single isomer, unassigned) [revaprazan hydrochloride crystalline form II]
- Appearance color ([1]; 5th day): White
- Loss on drying (%) ([1]; 5th day): 0.27%
- Purity (%) ([1]; 5th day): 99.97%
- Relevant substances ([1]; 5th day): Not detected
- Appearance color ([1]; 10th day): White
- Loss on drying (%) ([1]; 10th day): 0.29%
- Purity (%) ([1]; 10th day): 99.95%
- Relevant substances ([1]; 10th day): Not detected
- Appearance color ([1]; Day 0): White
- Loss on drying (%) ([1]; Day 0): 0.23%
- Purity (%) ([1]; Day 0): 99.94%
- Relevant substances ([1]; Day 0): Not detected
- Stability (conclusion in words) [1]: stable
- Appearance color ([2]; 5th day): White powder
- Purity (%) ([2]; 5th day, hydrochloride): 99.93%
- Relevant substances ([2]; 5th day, hydrochloride): Not detected
- Weight gain upon moisture absorption (%) ([2]; 5th day, hydrochloride): 0.42%
- Appearance color ([2]; 10th day): White powder
- Purity (%) ([2]; 10th day, hydrochloride): 99.95%
- Relevant substances ([2]; 10th day, hydrochloride): Not detected
- Weight gain upon moisture absorption (%) ([2]; 10th day, hydrochloride): 0.64%
- Appearance color ([2]; Day 0): White powder
- Weight gain upon moisture absorption (%) ([2]; Day 0): 0%
- Purity (%) ([2]; Day 0, hydrochloride): 99.94%
- Relevant substances ([2]; Day 0, hydrochloride): Not detected
- Weight gain upon moisture absorption (in words) [2]: slight weight gain
- Stability (conclusion in words) [2]: stable
- Stability (conclusion in words) [3]: stable
- Appearance color ([3]; 5th day): White powder
- Loss on drying (%) ([3]; 5th day): 0.26%
- Purity (%) ([3]; 5th day): 99.97%
- Relevant substances ([3]; 5th day): Not detected
- Appearance color ([3]; 10th day): White powder
- Loss on drying (%) ([3]; 10th day): 0.28%
- Purity (%) ([3]; 10th day): 99.94%
- Relevant substances ([3]; 10th day): Not detected
- Appearance color ([3]; Day 0): White powder
- Loss on drying (%) ([3]; Day 0): 0.25%
- Purity (%) ([3]; Day 0): 99.94%
- Relevant substances ([3]; Day 0): Not detected
- Appearance color ([4]; 1st month): White powder
- Purity (%) ([4]; 1st month): 99.93%
- Appearance color ([4]; 2nd month): White powder
- Purity (%) ([4]; 2nd month): 99.95%
- Appearance color ([4]; 3rd month): White powder
- Purity (%) ([4]; 3rd month): 99.96%
- Appearance color ([4]; 6th month): White powder
- Purity (%) ([4]; 6th month): 99.95%
- Appearance color ([4]; Month 0): White powder
- Purity (%) ([4]; Month 0): 99.94%
- Stability (conclusion in words) [4]: stable
